Results published in patent publication US7276576B1, “Mammalian ICYP (iodocyanopindolol) receptor and its applications” (Dainippon Sumitomo Pharma Co., Ltd., priority 1996, dated 2007).

Biological target: T1, [125I]-ICYP specific binding site (SMBP, SM-11044 binding protein) in rat colon smooth muscle membranes (Rattus norvegicus, UniProt A0A8I6A822)
T1 construct: Membranes from colon smooth muscles were prepared as essentially described by Ek et al., 1986; from tissue
Experiment: [125I]-ICYP saturation and competition binding to rat colon membranes (Example 2)
Conditions: for Pseudo-Hill coefficient / Ki: 1 nM [125I]-ICYP, 10 μM 5-HT, 10 μM phentolamine and 20 μM propranolol; for Ki: read-out: Ki on [125I]-ICYP specific binding to rat colon membranes; for Displacement of [125I]-ICYP specific binding (in words): competition binding, no concentration stated; for Displacement of [125I]-ICYP specific binding: up to the concentration of 1 mM; for Inhibition of [125I]-ICYP specific binding: n=2
Protocol: Incubations were carried out at 37° C. for 30 min in a shaking water-bath incubator and terminated by addition of 4 ml of ice-cold Tris-saline followed by rapid filtration under vacuum on Whatman GF/B filter presoaked in Tris-saline containing 0.1% polyethyleneimine (pH 7.4). The filters were washed three times with 4 ml of ice-cold Tris-saline, transferred to plastic tubes and counted in a γ-counter.
Hill coefficient was calculated by linear regression using saturation experiment data. Pseudo-Hill coefficient and IC50 were determined by the computer program, InPlot™ (GraphPad Software, CA, USA).

T1 sequence (A0A8I6A822 27-587): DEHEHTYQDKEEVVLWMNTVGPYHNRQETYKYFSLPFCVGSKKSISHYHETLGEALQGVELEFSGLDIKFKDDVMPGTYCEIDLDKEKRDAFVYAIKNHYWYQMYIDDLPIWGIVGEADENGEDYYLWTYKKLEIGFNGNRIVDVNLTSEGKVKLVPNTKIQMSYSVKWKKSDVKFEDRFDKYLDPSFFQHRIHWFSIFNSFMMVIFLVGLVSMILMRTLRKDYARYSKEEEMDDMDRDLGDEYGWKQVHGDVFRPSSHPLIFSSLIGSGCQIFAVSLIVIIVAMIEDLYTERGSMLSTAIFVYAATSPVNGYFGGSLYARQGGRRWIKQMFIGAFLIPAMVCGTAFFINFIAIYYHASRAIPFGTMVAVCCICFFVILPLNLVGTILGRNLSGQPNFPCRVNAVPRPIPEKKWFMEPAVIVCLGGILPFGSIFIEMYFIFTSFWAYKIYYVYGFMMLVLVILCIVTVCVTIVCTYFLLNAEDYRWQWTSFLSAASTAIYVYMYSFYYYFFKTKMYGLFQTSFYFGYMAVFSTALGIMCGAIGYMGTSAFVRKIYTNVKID

Row | SMILES | Pseudo-Hill coefficient | Ki | other results
1 | COC(=O)COc1ccc(OCCNCC(O)COc2ccccc2)cc1 (racemic) [ICI-198157, (RS)-4-[2-[(2-hydroxy-3-phenoxypropyl)amino]ethoxy]phenoxyacetic acid methyl ester] | 0.96 ± 0.23 | 29.4 ± 8.9 µM | Displacement of [125I]-ICYP specific binding (in words): displaced the specific binding
2 | NCCc1c[nH]c2ccc(O)cc12 [5-HT, serotonine] | – | > 1000 µM | Displacement of [125I]-ICYP specific binding: not displaced
3 | CC(C)(C)NCC(O)COc1cccc2[nH]c(=O)[nH]c12 (stereo not shown) [CGP-12177A] | – | > 100 µM | –
4 | NCCc1ccc(O)c(O)c1 [Dopamine, dopamine] | – | > 1000 µM | Displacement of [125I]-ICYP specific binding: not displaced
5 | Nc1nc2c(ncn2[C@@H]2O[C@H](COP(=O)(O)OP(=O)(O)OP(=O)(O)O)[C@@H](O)[C@H]2O)c(=O)[nH]1 [GTP] | – | – | Inhibition of [125I]-ICYP specific binding (at 300 μM): 29.8±2.7%; Inhibition of [125I]-ICYP specific binding (at 1 mM): 98.2 ± 1.3%
6 | O=C(O)COc1ccc(OCCNCC(O)COc2ccccc2)cc1 (stereo not shown) [ICI-201651] | – | > 100 µM | –
7 | O=C(O)COc1ccc(OCCNC[C@H](O)COc2ccccc2)cc1 [ICI-215001] | – | > 100 µM | –

Further lines, with some results ahead:

Row | Pseudo-Hill coefficient | Ki | SMILES | other results
8 | 1.08 ± 0.08 | 11.3 ± 0.8 µM | Cc1ccc(Cl)c(OCC(O)CNC(C)(C)C)c1 (racemic) [(±)-bupranolol, bupranolol] | –
9 | 0.77 ± 0.11 | 8.1 ± 1.7 µM | CC(C)NCC(O)COc1cccc2[nH]c3ccccc3c12 (racemic) [(±)-carazolol, carazolol] | Displacement of [125I]-ICYP specific binding (in words): less effective
10 | 0.67 ± 0.13 | 29.3 µM | O=C([C@@H](NCCCc1ccc(F)cc1)[C@@H](O)c1ccc(O)c(O)c1)N1CCCC1 (racemic) [SM-14010] | –
11 | 1.07 ± 0.15 | 2 µM | O=C([C@@H](NCCCc1ccc(F)cc1)[C@H](O)c1ccc(O)c(O)c1)N1CCCC1 (racemic) [SM-14011] | Effectiveness in competition binding relative to SM-14010 (ratio of Ki, SM-14011 vs SM-14010): 15 times
12 | 1.21 ± 0.21 | 5.9 ± 1 µM | CCOC(=O)COc1ccc2c(c1)C[C@@H](NC[C@H](O)c1cccc(Cl)c1)CC2 (racemic) [SR-58611A, (RS)-N-(7 carbethoxymethoxyl-1,2,3,4-tetrahydronaphth-2-yl)-2-hydroxy-2-(3 chlorophenyl) ethanamine hydro-chloride] | –
13 | 0.89 ± 0.14 | 28.5 µM | Cc1ccc(OCC(O)C(C)NC(C)C)c2c1CCC2 (stereo not shown) [ICI-118551] | –
14 | 0.92 ± 0.15 | 3.7 ± 0.4 µM | O=C([C@H](NCCCc1ccc(F)cc1)[C@@H](O)c1ccc(O)c(O)c1)N1CCCC1 [SM-14786] | –
